# Assay results published in article PMC7334220, “Diamond Blackfan anemia is mediated by hyperactive Nemo-like kinase” (Nature Communications, 2020).
# Values joined by “and” are separate entries in the source; they are usually repeats but may differ in a detail not shown here. Identical values can stand only once.
# Experiments:
# [1] = authors' statement in rebuttal, no data or reference; cited from earlier work
# [2] = tested on: RPL11-insufficient cord blood CD34+ HSPCs; test: In vitro differentiation of cord blood CD34+ HSPCs transduced with shRNA against RPL11; type: cell-based; conditions: Homo sapiens, 360 h; read-out: erythroid expansion in RPL11-insufficiency, % of control
# Source text: Fig. 8 NLK inhibition increases expansion of erythroid progenitors from human and murine models of DBA. a Human cord blood CD34^+ progenitors were transduced with lentivirus co-expressing GFP with shRNA against luciferase (shLuc), RPS19 (shRPS19), or RPL11 (shRPL11). […] Cells were counted and assessed for cell surface expression of CD235. b Lin-Kit^+ hematopoietic progenitors were obtained from three mouse embryos expressing tetracycline-inducible shRNA against RPS19 at day E14.5 or three untreated mice, and thee mature RPL11^+/+ or three mature RPL11^+/lox mice treated with tamoxifen for eight weeks. […] Values were expressed as a percentage relative to untreated controls. c, d Intracellular phosphorylation of NLK at Thr298 was determined by capillary electrophoresis using the Peggy Sue™ Automated Western blotting platform. After lysis, 4 µg of protein from the CD235^+ population was probed against pThr298-NLK and normalized to GAPDH. […] After counting the total cell population, the ratio of CD235^+ erythroblasts was determined by flow cytometry and number of CD235^+ erythroblasts calculated. This was expressed as a percentage of the average number of erythroid cells present in untreated healthy controls. f NLK phosphorylation was assessed by capillary electrophoresis as above. Bars represent means ± SD with individual data points overlaid. […]
# [3] = tested on: RPL11-insufficient Lin-Kit+ HSPCs; test: Erythroid differentiation of Lin-Kit+ HSPCs from tamoxifen-treated RPL11+/lox mice; type: cell-based, mouse; conditions: SD208; 8 days; three RPL11+/lox mice; without SD208 31.2, 26.4, 18.6%; Fig. 8b
# Protocol: Cells were counted and assessed for cell surface expression of CD235. b Lin-Kit^+ hematopoietic progenitors were obtained from three mouse embryos expressing tetracycline-inducible shRNA against RPS19 at day E14.5 or three untreated mice, and thee mature RPL11^+/+ or three mature RPL11^+/lox mice treated with tamoxifen for eight weeks. […] Values were expressed as a percentage relative to untreated controls. c, d Intracellular phosphorylation of NLK at […] was determined by capillary electrophoresis using the Peggy SueTM Automated Western blotting platform. […] After counting the total cell population, the ratio of CD235^+ erythroblasts was determined by flow cytometry and number of CD235^+ erythroblasts calculated. This was expressed as a percentage of the average number of erythroid cells present in untreated healthy controls. f NLK phosphorylation was assessed by capillary electrophoresis as above. Bars represent means ± SD with individual data points overlaid. […] Statistics: two-tailed Student's t test, significant *p < 0.05. Also see Supplementary Fig. 8. Source data are provided as a Source Data file. Three mature RPL11^+/lox mice were treated with tamoxifen for eight weeks to induce heterozygous deletion of RPL11. As controls, three different RPL11^+/+ littermates of the same mouse strain were treated with tamoxifen.
smiles,measurement,setting,value
Fc1ccc(Cl)cc1-c1nc(Nc2ccncc2)c2nccnc2n1 [SD208],solubility,[1],poor
same,activity at 5 µM,[2],36.7%
same,"erythropoiesis, % of controls",[3],57.3% and 56.8% and 50.3%
